From ChEMBL document CHEMBL1131454 (J Med Chem, 1998) come the findings set out here.

Where only a bound is given, the exact number is not on record here.

For assay [1], the target named is T1, Mineralocorticoid receptor (Homo sapiens, UniProt P08235).
T1 sequence (P08235 whole entry): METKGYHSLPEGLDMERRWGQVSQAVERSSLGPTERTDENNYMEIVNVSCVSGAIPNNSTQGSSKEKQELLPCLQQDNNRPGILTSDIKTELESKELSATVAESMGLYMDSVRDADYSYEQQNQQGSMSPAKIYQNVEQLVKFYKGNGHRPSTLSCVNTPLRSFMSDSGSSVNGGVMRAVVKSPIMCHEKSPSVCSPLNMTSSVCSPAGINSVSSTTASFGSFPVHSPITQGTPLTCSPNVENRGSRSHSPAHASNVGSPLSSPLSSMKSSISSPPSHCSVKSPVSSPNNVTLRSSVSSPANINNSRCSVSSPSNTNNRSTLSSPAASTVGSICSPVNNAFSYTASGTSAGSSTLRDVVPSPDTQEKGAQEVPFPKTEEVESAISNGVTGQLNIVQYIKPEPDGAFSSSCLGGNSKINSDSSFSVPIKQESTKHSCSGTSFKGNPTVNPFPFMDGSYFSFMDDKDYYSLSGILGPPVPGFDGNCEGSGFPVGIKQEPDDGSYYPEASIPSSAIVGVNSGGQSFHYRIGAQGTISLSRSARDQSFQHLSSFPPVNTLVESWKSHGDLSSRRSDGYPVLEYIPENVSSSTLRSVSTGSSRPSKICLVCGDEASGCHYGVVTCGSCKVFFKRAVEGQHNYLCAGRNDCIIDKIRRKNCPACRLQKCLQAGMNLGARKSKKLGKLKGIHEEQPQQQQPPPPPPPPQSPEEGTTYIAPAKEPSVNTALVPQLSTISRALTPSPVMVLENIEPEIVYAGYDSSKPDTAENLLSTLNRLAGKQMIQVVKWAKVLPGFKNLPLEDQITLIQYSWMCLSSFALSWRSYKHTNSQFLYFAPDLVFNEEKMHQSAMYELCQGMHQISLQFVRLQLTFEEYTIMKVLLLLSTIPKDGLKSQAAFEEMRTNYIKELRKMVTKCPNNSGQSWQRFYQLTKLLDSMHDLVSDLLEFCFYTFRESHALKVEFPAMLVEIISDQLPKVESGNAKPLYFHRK
The assay can be described thus: Antagonistic activity was determined in Human mineralocorticoid receptor(hMR) of CV-1 cells in cotransfection assay. It is filed as functional, cell-based.

The target in a further assay is T2, Glucocorticoid receptor (Homo sapiens, UniProt P04150).
T2 sequence (P04150 whole entry): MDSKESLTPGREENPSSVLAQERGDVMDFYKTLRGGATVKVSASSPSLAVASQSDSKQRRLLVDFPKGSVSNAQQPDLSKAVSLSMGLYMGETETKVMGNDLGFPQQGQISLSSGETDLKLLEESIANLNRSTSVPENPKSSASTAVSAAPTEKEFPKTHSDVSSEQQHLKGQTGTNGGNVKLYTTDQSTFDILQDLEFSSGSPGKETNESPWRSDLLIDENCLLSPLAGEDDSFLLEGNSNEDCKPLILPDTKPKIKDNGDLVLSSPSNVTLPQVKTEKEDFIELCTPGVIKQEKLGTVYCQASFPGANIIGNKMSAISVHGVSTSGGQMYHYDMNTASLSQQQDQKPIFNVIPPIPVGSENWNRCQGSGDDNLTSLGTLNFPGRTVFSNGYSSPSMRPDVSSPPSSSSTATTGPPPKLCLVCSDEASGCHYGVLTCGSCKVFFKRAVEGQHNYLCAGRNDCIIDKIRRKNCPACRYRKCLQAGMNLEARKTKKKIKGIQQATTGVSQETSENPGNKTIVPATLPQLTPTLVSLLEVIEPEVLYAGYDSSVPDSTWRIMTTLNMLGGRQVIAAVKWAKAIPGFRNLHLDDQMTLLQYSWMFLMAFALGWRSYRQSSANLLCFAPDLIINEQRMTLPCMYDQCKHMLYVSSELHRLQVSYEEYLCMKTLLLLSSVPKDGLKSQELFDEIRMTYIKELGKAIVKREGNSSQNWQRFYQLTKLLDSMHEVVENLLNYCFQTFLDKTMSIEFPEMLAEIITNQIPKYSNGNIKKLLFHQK

Assay [2] deals with T3, Progesterone receptor (Homo sapiens, UniProt P06401).
T3 sequence (P06401 whole entry): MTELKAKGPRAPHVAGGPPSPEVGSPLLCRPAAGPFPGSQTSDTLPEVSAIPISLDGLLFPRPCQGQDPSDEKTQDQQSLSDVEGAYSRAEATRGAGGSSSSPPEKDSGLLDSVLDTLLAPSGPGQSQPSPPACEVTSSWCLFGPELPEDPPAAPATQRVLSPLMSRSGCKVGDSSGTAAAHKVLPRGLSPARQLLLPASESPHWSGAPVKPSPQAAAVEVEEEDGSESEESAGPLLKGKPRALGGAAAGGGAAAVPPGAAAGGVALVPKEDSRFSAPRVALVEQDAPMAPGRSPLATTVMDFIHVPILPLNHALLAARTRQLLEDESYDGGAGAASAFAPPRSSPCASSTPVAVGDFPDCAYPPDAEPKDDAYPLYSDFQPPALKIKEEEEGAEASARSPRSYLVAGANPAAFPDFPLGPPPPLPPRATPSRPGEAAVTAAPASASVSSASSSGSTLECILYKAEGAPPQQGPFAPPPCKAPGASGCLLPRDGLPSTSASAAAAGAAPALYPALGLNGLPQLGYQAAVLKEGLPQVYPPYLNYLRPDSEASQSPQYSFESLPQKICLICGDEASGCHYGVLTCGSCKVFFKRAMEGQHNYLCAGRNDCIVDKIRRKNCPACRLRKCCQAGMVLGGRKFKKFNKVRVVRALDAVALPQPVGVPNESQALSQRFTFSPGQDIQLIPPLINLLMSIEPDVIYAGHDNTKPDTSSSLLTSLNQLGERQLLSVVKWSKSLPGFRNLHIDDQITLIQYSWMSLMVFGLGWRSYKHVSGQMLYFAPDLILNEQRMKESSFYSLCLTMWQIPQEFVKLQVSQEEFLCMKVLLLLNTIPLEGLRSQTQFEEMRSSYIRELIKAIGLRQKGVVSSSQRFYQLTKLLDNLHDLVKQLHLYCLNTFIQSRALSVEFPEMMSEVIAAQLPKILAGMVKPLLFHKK
The assay is described as follows: The binding affinity on Human progesterone receptor (hPR-A) using progesterone as radioligand.

Assay [3] addresses T3, Progesterone receptor. The assay is described as follows: Agonistic activity to the human progesterone receptor (hPR)assayed in CV-1 cells in cotransfection assay. It is filed as functional, cell-based.

A word on the IC50: it is the concentration that inhibits the measured activity by half. Low readings indicate inhibition by little substance, high ones a need for much substance. As a reminder, the Ki is a dissociation constant, usually derived from enzyme kinetics or from competition with a known ligand. The EC50 is the concentration needed to bring the measured effect to its halfway point. With `CC1=CC(C)(C)Nc2ccc3c(c21)C(c1cccc(C(F)(F)F)c1)Oc1ccccc1-3` (stereo not drawn), half-maximal inhibition in assay [1] (IC50) required 2220 nM. Also, the Ki was found to be 44 nM at Glucocorticoid receptor and 2.6 nM on Progesterone receptor [2]. Besides, on Progesterone receptor [3], the EC50 was 13 nM.

For `CC1=CC(C)(C)Nc2ccc3c(c21)C(c1ccc(Cl)c(F)c1)Oc1ccccc1-3` (stereo not drawn), the IC50 in assay [1] turned out to be 1360 nM. The values for the Ki at Glucocorticoid receptor and on Progesterone receptor [2] were 39 nM and 0.41 nM, respectively. Further, on Progesterone receptor [3], it took 17 nM to reach a half-maximal effect (EC50).

`CC1=CC(C)(C)Nc2ccc3c(c21)C(c1cc(Cl)cc(Cl)c1)Oc1ccccc1-3` (stereo not drawn) came in with an IC50 in assay [1] greater than 10000 nM. Moreover, the figures for the Ki at Glucocorticoid receptor and at Progesterone receptor [2] were 100 nM and 1.7 nM, respectively. This compound displayed an EC50 on Progesterone receptor [3] of 50 nM.

In turn, `CC1=CC(C)(C)Nc2ccc3c(c21)C(c1ccc(Br)cc1)Oc1ccccc1-3` (stereo not drawn) displayed an IC50 in assay [1] of 977 nM. For the same compound, the Ki at Glucocorticoid receptor stood at 67 nM; on Progesterone receptor [2], 0.55 nM. In addition, it took 14 nM to reach a half-maximal effect on Progesterone receptor [3] (EC50).

Consider `CC1=CC(C)(C)Nc2ccc3c(c21)C(c1cc(C)cc(Br)c1)Oc1ccccc1-3` (stereo not drawn), for which the IC50 in assay [1] is greater than 10000 nM. Moreover, the Ki at Glucocorticoid receptor is 42 nM; on Progesterone receptor [2], 0.87 nM. Further, it took 17 nM to reach a half-maximal effect at Progesterone receptor [3] (EC50).

On to `CC1=CC(C)(C)Nc2ccc3c(c21)C(c1ccc(Cl)c(C)c1)Oc1ccccc1-3` (stereo not drawn), for which the IC50 in assay [1] stood at 2030 nM. The Ki at Glucocorticoid receptor was determined as 147 nM; on Progesterone receptor [2] it was 1.2 nM. The response at Progesterone receptor [3] was half-maximal at 14 nM (EC50).

`CC1=CC(C)(C)Nc2ccc3c(c21)C(c1cccc(Cl)c1)Oc1ccccc1-3` (stereo not drawn): the IC50 in assay [1] is 748 nM. Besides, the Ki turned out to be 58 nM at Glucocorticoid receptor and 0.43 nM on Progesterone receptor [2]. At Progesterone receptor [3], a half-maximal effect (EC50) was put at 18 nM.

In assay [1], `CC1=CC(C)(C)Nc2ccc3c(c21)C(c1cccc(Br)c1)Oc1ccccc1-3` (stereo not drawn) gave an IC50 of 1070 nM. The Ki on Glucocorticoid receptor is 34 nM; on Progesterone receptor [2] it was 1.1 nM. The compound also registered an EC50 at Progesterone receptor [3] of 8 nM.

Turning to `CC1=CC(C)(C)Nc2ccc3c(c21)C(c1ccc(Cl)c(Cl)c1)Oc1ccccc1-3` (stereo not drawn), half-maximal inhibition in assay [1] (IC50) required 1060 nM. The figures for the Ki at Glucocorticoid receptor and at Progesterone receptor [2] were 59 nM and 3.4 nM, respectively. At Progesterone receptor [3], this compound yielded an EC50 of 18 nM.

Compound `CC1=CC(C)(C)Nc2ccc3c(c21)C(c1ccc(C)cc1)Oc1ccccc1-3` (stereo not drawn) returned an IC50 in assay [1] of 1590 nM. The Ki was 80 nM on Glucocorticoid receptor and 2.3 nM at Progesterone receptor [2]. In addition, it took 37 nM to reach a half-maximal effect at Progesterone receptor [3] (EC50).

In turn, `CC1=CC(C)(C)Nc2ccc3c(c21)C(c1ccc(Cl)cc1)Oc1ccccc1-3` (stereo not drawn) returned an IC50 in assay [1] of 1520 nM. Moreover, the Ki on Glucocorticoid receptor came out at 152 nM; on Progesterone receptor [2], 0.7 nM. On Progesterone receptor [3], this compound had an EC50 of 14 nM.

In assay [1], `CC1=CC(C)(C)Nc2ccc3c(c21)C(c1ccc(C)c(F)c1)Oc1ccccc1-3` (stereo not drawn) gave an IC50 of 1000 nM. For the same compound, the Ki at Glucocorticoid receptor was determined as 60 nM; at Progesterone receptor [2], 1.8 nM. On Progesterone receptor [3], this compound registered an EC50 of 16 nM.
